Measured values reported in article PMC12097374 (Bioconjugate chemistry, 2017).

How the values were obtained:
[1] = test system: C6 rat glioma cells; test: Confocal cell imaging and displacement in live C6 rat glioma cells; type: cell-based; conditions: 0.1 μM probe 29, 100-fold higher concentration (10 μM) of competitor
[2] = target: TSPO (Rattus norvegicus, UniProt P16257); conditions: cited from earlier work

| SMILES | displacement of fluorescent probe 29 in C6 glioma cells [1] | fold enhancement in affinity compared with DPA-714 [2] [fold] |
| --- | --- | --- |
| CCC(C)N(C)C(=O)c1cc2ccccc2c(-c2ccccc2Cl)n1 (stereo not drawn) [PK 11195] | completely displaced |  |
| CCc1cc(CC)n2nc(-c3ccc(OCCF)cc3)c(CC(=O)N(CC)CC)c2n1 [VUIIS 1008, 2-(5,7-diethyl-2-(4-(2-fluoroethoxy)phenyl)-pyrazolo[1,5-a]pyrimidin-3-yl)-N,N-diethylacetamide] | completely displaced | 36 |
